Results published in patent publication US20060205037A1, “Modified transferrin fusion proteins” (priority 2003, published 2006).

Assays:
[1] = blood; cited from earlier work
db/db mice [2] = assay: food intake and post-prandial blood glucose, db/db mice; format: in vivo
Description: (§1) Mice (N=5 per group) were conditioned to eat once daily (9-10 am) for five days. […] Food intake and blood glucose levels were measured 2, 4, 7 and 24 h after peptide administration.

[3] = c-Fos activation in brain after IP injection; format: in vivo, mice; settings: IP 1 nmol/kg
Description: (§2) Briefly, mice that received IP injections were anesthetized with isoflurane 2 h later and the mice that received ICV injections were anesthetized 1.5 and 24 h later. Intracardiac perfusion with ice-cold 4% paraformaldehyde was immediately carried out. Brains were removed immediately at the end of perfusion, kept in ice-cold 4% parafor maldehyde for 72 h, and then transferred to a solution containing 4% paraformaldehyde and 25% sucrose until they floated. Each brain as cut into 30 μm sections using a sliding microtome with a freezing stage. Brain sections from each animal were placed in a 12-well plate and then processed for immunocytochemistry. The free-floating sections from each animal were first incubated in 0.3% H2O2 for 30 min and then washed 3 times in PBS for 5 min/rinse. Thereafter the sections were incubated in blocking serum (normal goat serum/PBS/0.1% Triton) for 45 min at room temperature. The sections were stained for c-Fos with an antibody directed against the amino acid residues 4-17 in rabbit anti-human c-Fos (Calbiochem, 1:30,000) for 48 h at 4° C. The sections were then washed 6 times with PBS/0.1% Triton before incubation for 1.5 h at room temperature with biotinylated goat anti-rabbit IgG (1:600) in blocking serum (Vector Laboratories). Thereafter the sections were visualized with DAB (Vectastain ABC kit) and developed until the color reached the required intensity in the control sections. The reaction was stopped by immersion of the slides in distilled water. After the staining was completed, sections were mounted on superfrost slides (Fisher Scientific), air-dried for 1-2 days and coverslipped with Permount. Sections were examined using light microscopy to identify c-Fos-positive cells.

c-Fos [4] = assay: c-Fos activation in brain after IP injection; format: in vivo, mice
Description: as §2

diabetic db/db mice [5] = system: diabetic db/db mice
Description: Male diabetic db/db mice (C57BLKS/J-Lepr^db/Lepr^db) lacking a functioning leptin receptor and their non-diabetic heterozygous littermates were purchased at 4 weeks of age from Jackson Laboratories (Bar Harbor). They were housed, two per cage and fed ad libitum for at least five days before any testing. The same mice were caged together for the duration of the studies.
Plasma insulin levels were measured at 1 and 4 hours.

c-Fos [6] = assay: c-Fos activation in brain after ICV injection; format: in vivo, mice
Description: Briefly, mice that received IP injections were anesthetized with isoflurane 2 h later and the mice that received ICV injections were anesthetized 1.5 and 24 h later. Intracardiac perfusion with ice-cold 4% paraformaldehyde was immediately carried out. Brains were removed immediately at the end of perfusion, kept in ice-cold 4% parafor maldehyde for 72 h, and then transferred to a solution containing 4% paraformaldehyde and 25% sucrose until they floated. Each brain as cut into 30 μm sections using a sliding microtome with a freezing stage. Brain sections from each animal were placed in a 12-well plate and then processed for immunocytochemistry. The free-floating sections from each animal were first incubated in 0.3% H2O2 for 30 min and then washed 3 times in PBS for 5 min/rinse. Thereafter the sections were incubated in blocking serum (normal goat serum/PBS/0.1% Triton) for 45 min at room temperature. The sections were stained for c-Fos with an antibody directed against the amino acid residues 4-17 in rabbit anti-human c-Fos (Calbiochem, 1:30,000) for 48 h at 4° C. […]
In another series of experiments, Tf and GLP-1-Tf were administered intracerebrovenitricular (ICV) and c-Fos activation assessed 1.5 and 24 hours later.

non-diabetic mice [7] = assay: IPGTT in non-diabetic mice after IP administration; format: in vivo; settings: IP 1 and 10 mg/kg
Description: Intraperitoneal (IP) glucose tolerance testing (IPGTT) (0.5 g/kg body weight) was carried out after an overnight fast in non-diabetic mice. Tf and GLP-1-Tf were administered IP 30 min before the glucose injection. Blood glucose levels (Glucometer Elite, Bayer) were measured at 0, and 30 and 60 min and plasma insulin levels at 0 and 30 min after the IPGTT.

RIN 1046-38 cells = assay: insulin secretion in RIN 1046-38 cells; format: cell-based; settings: rat insulinoma cells, concentration-dependent
Description: Rat insulinoma cell line, RIN1046-38 cells, was obtained from Dr. Samuel A. Clark and cultured with 5% CO2 at 37° C. in M199 medium (Cellgro) as previously described (Wang et al., 2001, Endocrinology, 142: 1820-1827). […] Exendin-9-39 (1 μmol/l: Bachem), an inhibitor of the GLP-1R. was also added overnight to one set of experiments. The supernatant was then collected and saved at −80° C. for determination of insulin content by ELISA (Crystal Chems). Cells were lysed and the protein content was quantified using the Bradford method.

non-diabetic mice [8] = assay: food intake and post-prandial blood glucose, non-diabetic mice; format: in vivo
Description: as §1

diabetic db/db mice [9] = assay: overnight fast and IPGTT in diabetic mice after SC administration; format: in vivo
Description: A group of diabetic mice were given Tf or GLP-1-Tf via SC administration at 9 pm, fasted overnight and an IPGTT performed the next morning. The fasted Tf-treated animals had lower fasting blood glucose than ad libitum fed animals (238±39 versus 358±23 mg/dl; compare 0 time/fasted animals of FIG. 10c with 0 time/fed animals of FIG. 10a), and additionally, the animals given 1 or […] had lower fasting blood glucose (132±27 mg/dl) than those given Tf alone.

db/db mice [10] = assay: β-cell proliferation (BrdU) and β-cell mass in db/db mice; format: in vivo; settings: for increase in total β-cell mass: 10 mg/kg
Description: db/db mice, 6 per time point, received one IP injection of Tf (10 mg/kg) or GLP-1-Tf (10 mg/kg) and were sacrificed 1, 2 and 3 days later for measurement of β-cell proliferation and 3, 5, 8 and 10 days later for measurement of islet mass. Sixty mg/kg 5-bromo-2-deoxyuridine (BrdU, Sigma) was injected IP 6 hours before sacrifice. BrdU is a thymidine analog that is incorporated during S-phase of cell mitosis. Pancreata were removed, fixed overnight in 4% buffered formalin, processed for embedding in paraffin and histological sections (4 μm) mounted on poly-1-lysine-coated glass slides. BrdU was detected with a BrdU antibody (Sigma, 1:500 and also confirmed with Zymed antibody, 1:250) and BrdU staining kit (Zymed Laboratories Inc). Five to six hundred islets from each condition were then visualized and the number of islets that contained BrdU+ cells as well as the percent BrdU+ nuclei per total number of islet cells was quantified. For insulin staining and determination of β-cell mass histological sections were treated with a guinea-pig insulin antibody (Linco). Antibody binding was visualized with 3,3-diaminobenzidine (DAB) and sections counterstained with hematoxylin (Vectastain ABC kit, Vector Laboratories, using goat anti-guinea pig IgG). The sections were examined using a video camera connected to a computer with imaging software. Sectioned tissue images were acquired through a 2.5× objective of a phase contrast light microscope (Carl Zeiss) and digitized by means of a Sony Power HAD digital camera (an average of 20-30 images per section). The total pancreatic area and β-cell positive area for every image were quantified using MetaMorph 4.6.3 software (Universal Imaging Inc., West Chester).

isolated rat islets = assay: insulin secretion in isolated rat islets; format: cell-based; settings: concentration-dependent
Description: Islets from Sprague-Dawley rats were isolated as we previously described, with some modification (Wang et al., 1997, J. Clin. Invest. 99: 2883-2889). Briefly, pancreata were digested by Collagenase Type XI (Sigma) and islets separated through a Ficoll-Paque gradient (Amersham Biosciences). The isolated islets were washed several times using Hanks Balanced Salts Solution (Biosource) containing 0.2% bovine serum albumin (BSA, Sigma), hand-picked and cultured overnight with 5% CO2 at 37° C. in M199 medium supplemented with 5 mM glucose. Rat islets were then treated similarly to (30-40 per well) to RIN cells as described above.

non-diabetic mice [11] = assay: blood glucose after SC administration, ad libitum fed non-diabetic mice; format: in vivo
[12] = GLP-1-Tf in serum of cynomolgus monkeys (Example 4); format: in vivo, cynomolgus monkeys (Macaca fascicularis); settings: cAMP in CHO/GLP-1R
[13] = compared to hTf-treated animals
[14] = 10 mg/kg, 2 h after administration

Carbohydrate deficient transferrin: transferrin form elevated in the blood of alcoholic individuals
half life [1]: 14 to 17 days

exendin-4 [reference compound]
food intake in the remaining 17 h (db/db mice [2]; 1 nmol/kg IP): caused a decrease in food intake | time for which essentially all measurable food consumption was prevented (db/db mice [2]; 1 nmol/kg IP): 7 h | AP c-Fos response compared to GLP-1-Tf [3]: much more robust | brain areas with c-Fos activation (c-Fos [4]; IP 1 nmol/kg): activated similar areas to GLP-1-Tf in all injected animals

glycosylated transferrin: glycosylated serum transferrin
half life [1]: 7 to 10 days

pREX0585: nL GLP-1 (7-37; A8G, K34A) (PEAPTD)2 mTf; mTf lacking N-glycosylation at sites 413 and 611
post-prandial blood glucose levels (db/db mice [2]; 0.1, 1 and 10 mg/kg, compared to Tf treatment): lowered post-prandial blood glucose levels | time for which food intake was decreased by approximately half (db/db mice [2]; IP 1 and 10 mg/kg): 2 h | plasma insulin levels at 1 hour (diabetic db/db mice [5]; SC 0.1 mg/kg): increased plasma insulin levels | beginning of blood glucose effect after injection (diabetic db/db mice [5]; SC 1 and 10 mg/kg): 1 h | duration of increased plasma insulin levels (diabetic db/db mice [5]; SC 1 and 10 mg/kg): ≥ 4 h | blood glucose (diabetic db/db mice [5]; SC both 1 and 10 mg/kg, ad libitum, from 358±23): 115 ± 18 mg/dL | duration of effect on blood glucose (diabetic db/db mice [5]; SC highest dose): at least 12 hours | duration of blood glucose lowering (diabetic db/db mice [5]; SC low dose 0.1 mg/kg): 4 h | c-Fos activation ninety minutes after ICV injection (c-Fos [6]; 1.5 h): c-Fos activation had occurred in PVH and NTS but not AP | c-Fos activation 24 h after ICV injection (c-Fos [6]; 24 h): not present in any of the three brain regions | insulin secretion (non-diabetic mice [7]; 30 min before glucose): enhanced insulin secretion | peak blood glucose (non-diabetic mice [7]; IPGTT): decreased | insulin secretion (RIN 1046-38 cells): stimulate insulin secretion | post-prandial blood glucose levels (non-diabetic mice [8]; 0.1, 1 and 10 mg/kg, compared to Tf only): lower | time for which food intake was decreased by approximately half (non-diabetic mice [8]; IP 1 mg/kg): 2 h | time for which food intake was decreased by approximately half (non-diabetic mice [8]; IP 10 mg/kg): up to 7 h | fasting blood glucose (diabetic db/db mice [9]; SC at 9 pm, fasted overnight, GLP-1-Tf 1 or 10 mg): 132 ± 27 mg/dL | glucose levels after the IPGTT (diabetic db/db mice [9]; [13]): lower glucose levels | plasma insulin levels after the IPGTT (diabetic db/db mice [9]; [13]): higher plasma insulin levels | number of BrdU+ nuclei in islets 24 hours after injection (db/db mice [10]; 10 mg/kg IP, compared to Tf): clear increase in the number of BrdU+ nuclei | islets with 1 or more BRDU+ nuclei (db/db mice [10]; 10 mg/kg IP, third day): all islets | increase in BRDU+ nuclei (db/db mice [10]; 10 mg/kg IP, third day, vs Tf, p<0.01): 4.7 fold | increase in total β-cell mass (db/db mice [10]; 3 days, compared to Tf): 1.7 fold | increase in total β-cell mass (db/db mice [10]; 5 days, compared to Tf): 2.2 fold | increase in total β-cell mass (db/db mice [10]; 8 days, compared to Tf): 4.1 fold | increase in total β-cell mass (db/db mice [10]; 10 days, compared to Tf): 4.3 fold | c-Fos activation, AP (c-Fos [4]; 1 mg/kg): 0/6 | c-Fos activation, NTS (c-Fos [4]; 1 mg/kg): 6/6 | c-Fos activation, PVH (c-Fos [4]; 1 mg/kg): 6/6 | c-Fos activation, area postrema (AP) (c-Fos [4]; [14]): 4/6 | c-Fos activation, nuclei of the solitary tract (NTS) (c-Fos [4]; [14]): 6/6 | c-Fos activation, paraventricular nuclei of the hypothalamus (PVH) (c-Fos [4]; [14]): 6/6 | insulin secretion (isolated rat islets): stimulate insulin secretion | time for blood glucose to rise to pre-administration levels (non-diabetic mice [11]): ≤ 24 h | blood glucose concentration and insulin secretion (non-diabetic mice [11]; ad libitum fed): dose-dependently reduced blood glucose concentration and increased insulin secretion | persistence of low blood glucose (non-diabetic mice [11]; higher dose 10 mg/kg): up to 36 hours | blood glucose level (non-diabetic mice [11]; within 3 hours of administration): 70 mg/dL | activity of GLP-1-Tf in serum from the injected monkeys on CHO/GLP-1R [12]: biologically active
